Experimental data published in patent US20240360134A1, “PYRAZOLOPYRIMIDINES AND THEIR USES AS PDGFR INHIBITORS” (priority 2021, published 2024).
Like-named read-outs stand apart in the source and are kept apart here.

Experiments:
PDGFRβ = PDGFRβ (Rattus norvegicus (Rat), UniProt Q05030); test: PDGFRβ Cellular Assay (PDGFRb P-Y751 HTRF, PDGF-BB stimulated A10 cells); assay type: cell-based
Procedure: Cell Culture and Preparation: Cells are cultured according to ATCC procedure (5) with the addition of the antibiotic penicillin-streptomycin. If working from frozen, cells should be thawed according to ATCC procedure. Depending on the cell density of frozen vial, cells will need time to recover from thaw. An 80% confluent T75 flask should be enough for one 384 well plate.
Stock Solutions: Rat PDGFBB. A 100 ug/mL stock is prepared by reconstituting 50 ug in 500 μL of 4 mM HCl and 0.1% BSA. It can be stored for a month at 4° C., or aliquoted out and frozen in the −20/−80° C. to avoid multiple free-thaw cycles.
1× Cisbio cell lysis buffer. The cell lysis buffer is diluted 4-fold with molecular grade water. The blocking agent is then diluted 25-fold in the diluted lysis buffer.
Antibody solutions. Equal amounts d2 and cryptate antibody are diluted 20-fold in detection buffer.
Rat PDGFBB. A working stock of 100 ng/mL is created from the stock solution in 10% FBS culture media.
Step 1: Plating Cells: Media from the A10 cell flask is aspirated. The cells are rinsed with PBS and then trypsinized to disperse the cell layer. The cells are then pelleted are resuspended to 1.25e5 cells/mL. […] Plates are covered and placed in the incubator (37° C. 5% CO2) overnight to allow cells to adhere.
Step 2: Compound Dispense: Approximately 18 hours after plating, dispense 40 nL compound onto cells using Echo. […] The plate is returned to the incubator for 3 hours.
After 10 minutes the media is removed by flicking the plate.
Step 4: Cell lysis and antibody addition: 20 uL lysis buffer per well is added to the plate via Tempest. 5 uL antibody solution is added per well via the Tempest. The plate is placed on the shaker at 230 rpm for 1 hour at room temperature.
Step 5: Detection: The plate is read using the HTRF module on the BMG Pherastar. Data is analyzed using Genedata Screener.
IC50 values are determined from a 4-parameter fit, using the following equation: Y=Bottom+(Top−Bottom)/(1+10((Log IC50−X)*Hill slope)), where X=log10 of the compound concentration; top can be defined by PC; bottom defined by NC.

VEGFR2, unphosphorylated = VEGFR2, unphosphorylated (Homo sapiens (Human), UniProt P35968); test: VEGFR ADP GLO assay; assay type: biochemical; conditions: 5 nM VEGFR2, 1.2 mM ATP, 1 mg/mL Srctide, 180 min
Procedure: Assay buffer stock contains 50 mM HEPES pH7.5, 10 mM MgCl2, 0.01% Brij-35, and 1 mM EGTA.
Unphosphorylated VEGFR2. 52.6 μM in 50 mM Tris-HCl, pH 8.0, 50 mM NaCl, 5% Glycerol, 0.5 mM TCEP. Store at −80° C. in aliquots.
10 mg/mL srctide solution, prepared in Assay buffer (Assay buffer stock with 2 mM DTT, 0.1% Pluronic F-127, and 0.1 mg/mL ovalbumin). Sonicate 10 mg/ml Srctide solution for 10 minutes and then vacuum filter.
Assay buffer. Add DTT to 2 mM, Pluronic F-127 to 0.1% and ovalbumin to 0.1 mg/mL to Assay buffer stock.
2× kinase solution. Make a working solution of 10 nM unphosphorylated VEGFR2 in Assay buffer. Vacuum filter 2× kinase solution prior to running assay. Keep on ice until use.
2× substrate/ATP solution. Make a working solution of 2 mg/mL srctide and 2.4 mM ATP in Assay buffer. Keep on ice until use.
Step 1. Dispensing inhibitors/controls: Using Echo, dispense 10 nL/well compound serial dilutions in DMSO to columns 1-22 (in 384-well plates) or columns 1-44 (in 1536-well plates). Dilution series=11 pt, 3-fold dilutions. The top compound concentration in the source plate is 4 mM. The top compound concentration in the assay plate is 10 uM. Using Echo, dispense 10 nl/well DMSO to column 23 (in 384-well plates) or columns 45-47 (in 1536-well plates). These wells will serve as negative control wells Using Echo, dispense 10 nl/well 400 uM TAK-593 in DMSO to column 24 (in 384-well plates) or column 48 (in 1536-well plates). The final concentration of TAK-593 in the assay should be 1 uM. These wells will serve as positive control wells.
Step 2. Pre-incubation of inhibitors with kinase: Add 2 μL/well 2× kinase solution. Centrifuge at 1000 rpm for 1 min. Incubate at room temperature for 30 min.
Step 3. Kinase cascade reaction: Add 2 μL/well 2× substrate/ATP solution to initiate kinase reactions. Centrifuge at 1000 rpm for 1 min. Incubate at room temperature for 180 min.
Final concentrations of components in the assay:
Step 4. Quench: Add 2 uL/well ADP Glo Reagent+0.05% CHAPS. Centrifuge at 1000 rpm for 1 min; Incubate at room temperature for one hour.
Step 5. Detection: Add 2 uL/well Kinase Detection Reagent+0.05% CHAPS. Centrifuge at 1000 rpm for 1 min; Incubate at room temperature for 1 hour; Read Luminescence on a plate reader.
% Inhibition: % Inhibition=(NC−sample)/(NC−PC)*100 where NC is the mean of negative control (reactions without inhibitor), and PC is the mean of positive control (1 μM TAK-593).
IC50 values are determined from a 4-parameter fit, using the following equation: Y=Bottom+(Top−Bottom)/(1+10^(Log IC50-X)*Hill Slope), where X=log10 of the compound concentration; top can be defined by PC; bottom defined by NC.

[1] = A10 cells, 3 hours compound, 15 ng/mL PDGFbb for 10 minutes, read-out: PDGFR Cellular IC50

Chain of PDGFRβ (Q05030 whole entry, looked up): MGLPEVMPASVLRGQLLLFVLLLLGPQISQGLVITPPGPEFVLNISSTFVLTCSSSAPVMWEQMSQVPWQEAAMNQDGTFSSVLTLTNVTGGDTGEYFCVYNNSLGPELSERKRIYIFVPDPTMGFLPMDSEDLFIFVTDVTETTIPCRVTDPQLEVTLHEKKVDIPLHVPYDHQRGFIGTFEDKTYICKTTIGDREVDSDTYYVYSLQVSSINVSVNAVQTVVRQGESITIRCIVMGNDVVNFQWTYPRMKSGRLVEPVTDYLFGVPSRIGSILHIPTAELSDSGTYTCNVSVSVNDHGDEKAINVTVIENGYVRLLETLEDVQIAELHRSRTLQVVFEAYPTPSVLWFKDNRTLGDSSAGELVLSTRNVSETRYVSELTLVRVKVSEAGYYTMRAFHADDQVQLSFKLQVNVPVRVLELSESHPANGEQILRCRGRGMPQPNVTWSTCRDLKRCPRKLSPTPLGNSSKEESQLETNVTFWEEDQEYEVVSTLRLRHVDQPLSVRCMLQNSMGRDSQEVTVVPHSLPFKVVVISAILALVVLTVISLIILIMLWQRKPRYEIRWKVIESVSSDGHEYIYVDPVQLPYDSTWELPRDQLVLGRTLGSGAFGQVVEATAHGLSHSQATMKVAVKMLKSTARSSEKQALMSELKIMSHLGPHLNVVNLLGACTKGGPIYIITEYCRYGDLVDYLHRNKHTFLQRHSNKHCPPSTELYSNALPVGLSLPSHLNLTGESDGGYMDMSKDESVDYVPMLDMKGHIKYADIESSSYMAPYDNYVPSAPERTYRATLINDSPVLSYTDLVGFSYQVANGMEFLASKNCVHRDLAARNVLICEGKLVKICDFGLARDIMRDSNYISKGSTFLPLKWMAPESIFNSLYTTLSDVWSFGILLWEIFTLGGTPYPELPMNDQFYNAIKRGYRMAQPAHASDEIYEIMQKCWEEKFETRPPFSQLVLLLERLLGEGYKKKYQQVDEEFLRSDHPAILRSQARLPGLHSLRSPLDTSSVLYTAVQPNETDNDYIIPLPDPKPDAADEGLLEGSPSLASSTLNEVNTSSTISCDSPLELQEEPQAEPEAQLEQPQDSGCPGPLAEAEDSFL
Chain of VEGFR2, unphosphorylated (P35968 whole entry, looked up): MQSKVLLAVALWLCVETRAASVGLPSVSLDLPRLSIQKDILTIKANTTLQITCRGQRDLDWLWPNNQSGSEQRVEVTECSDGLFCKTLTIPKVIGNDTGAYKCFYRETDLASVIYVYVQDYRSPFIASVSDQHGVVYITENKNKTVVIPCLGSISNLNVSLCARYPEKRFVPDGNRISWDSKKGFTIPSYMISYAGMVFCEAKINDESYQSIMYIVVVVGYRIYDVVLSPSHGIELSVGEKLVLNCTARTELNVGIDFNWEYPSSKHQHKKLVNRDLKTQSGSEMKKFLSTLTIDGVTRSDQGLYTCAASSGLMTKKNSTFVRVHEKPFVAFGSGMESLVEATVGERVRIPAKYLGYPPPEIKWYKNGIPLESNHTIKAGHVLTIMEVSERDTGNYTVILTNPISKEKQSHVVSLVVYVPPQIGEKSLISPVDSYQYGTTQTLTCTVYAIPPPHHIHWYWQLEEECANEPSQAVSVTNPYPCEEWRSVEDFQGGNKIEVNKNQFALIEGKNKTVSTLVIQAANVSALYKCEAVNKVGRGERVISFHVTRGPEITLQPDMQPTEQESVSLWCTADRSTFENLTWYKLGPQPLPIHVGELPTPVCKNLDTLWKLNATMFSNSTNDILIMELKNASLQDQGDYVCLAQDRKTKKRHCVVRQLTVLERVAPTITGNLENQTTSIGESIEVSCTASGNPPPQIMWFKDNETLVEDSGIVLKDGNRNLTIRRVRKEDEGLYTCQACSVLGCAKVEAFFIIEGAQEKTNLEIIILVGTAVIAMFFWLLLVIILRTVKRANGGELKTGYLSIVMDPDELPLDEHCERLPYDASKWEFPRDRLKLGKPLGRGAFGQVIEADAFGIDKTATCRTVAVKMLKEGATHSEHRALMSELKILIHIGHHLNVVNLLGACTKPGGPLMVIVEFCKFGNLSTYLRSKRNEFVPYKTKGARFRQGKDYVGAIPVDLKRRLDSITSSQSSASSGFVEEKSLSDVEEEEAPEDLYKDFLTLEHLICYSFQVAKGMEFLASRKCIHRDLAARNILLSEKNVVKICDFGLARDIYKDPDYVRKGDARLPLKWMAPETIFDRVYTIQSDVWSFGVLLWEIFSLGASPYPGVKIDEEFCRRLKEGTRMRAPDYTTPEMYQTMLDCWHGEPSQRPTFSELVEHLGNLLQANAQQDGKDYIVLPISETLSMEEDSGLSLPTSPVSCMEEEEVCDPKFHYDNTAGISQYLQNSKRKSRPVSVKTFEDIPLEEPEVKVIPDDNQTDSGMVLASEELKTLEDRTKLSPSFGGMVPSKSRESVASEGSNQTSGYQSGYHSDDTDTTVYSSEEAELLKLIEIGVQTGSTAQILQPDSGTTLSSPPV

Row | Structure (SMILES) | IC50 (PDGFRβ; [1]) [nM] | IC50 (PDGFRβ) [nM] | IC50 (VEGFR2, unphosphorylated) [nM]
1 | Cc1ncc(NC(=O)CN2C[C@H](C)O[C@@H](C)C2)cc1Nc1nn(C)c2nc(Nc3cnn(C)c3)ncc12 (relative stereo) [Example 73, 2-(trans-2,6-dimethylmorpholino)-N-(6-methyl-5-((1-methyl-6-((1-methyl-1H-pyrazol-4-yl)amino)-1H-pyrazolo[3,4-d]pyrimidin-3-yl)amino)pyridin-3-yl)acetamide] | 5.3 | – | –
2 | Cc1ncc(C(=O)NCCN2CC[C@H](C)C2)cc1Nc1nn(C)c2nc(Nc3cncnc3)ncc12 [Example 12, (S)-6-methyl-5-((1-methyl-6-(pyrimidin-5-ylamino)-1H-pyrazolo[3,4-d]pyrimidin-3-yl)amino)-N-(2-(3-methylpyrrolidin-1-yl)ethyl)nicotinamide] | – | 110 | > 7500
3 | Cc1ncc(C(=O)NCCN2CCCC23COC3)cc1Nc1nn(C)c2nc(Nc3cnn(C)c3)ncc12 [Example 18, N-(2-(2-oxa-5-azaspiro[3.4]octan-5-yl)ethyl)-6-methyl-5-((1-methyl-6-((1-methyl-1H-pyrazol-4-yl)amino)-1H-pyrazolo[3,4-d]pyrimidin-3-yl)amino)nicotinamide] | – | 40.1 | > 7500
4 | Cc1ncc(C(=O)NCCN2CCC3(CCO3)CC2)cc1Nc1nn(C)c2nc(Nc3cnn(C)c3)ncc12 [Example 19, N-(2-(1-oxa-7-azaspiro[3.5]nonan-7-yl)ethyl)-6-methyl-5-((1-methyl-6-((1-methyl-1H-pyrazol-4-yl)amino)-1H-pyrazolo[3,4-d]pyrimidin-3-yl)amino)nicotinamide] | – | 56 | > 7500
5 | Cc1ncc(C(=O)NCCN2CCC3(CC2)COC3)cc1Nc1nn(C)c2nc(Nc3cnn(C)c3)ncc12 [Example 20, N-(2-(2-oxa-7-azaspiro[3.5]nonan-7-yl)ethyl)-6-methyl-5-((1-methyl-6-((1-methyl-1H-pyrazol-4-yl)amino)-1H-pyrazolo[3,4-d]pyrimidin-3-yl)amino)nicotinamide] | – | 168 | > 7500
6 | Cc1ncc(C(=O)NCCN2CCCC2(C)C)cc1Nc1nn(C)c2nc(Nc3ccn(C)n3)ncc12 [Example 34, N-(2-(2,2-dimethylpyrrolidin-1-yl)ethyl)-6-methyl-5-((1-methyl-6-((1-methyl-1H-pyrazol-3-yl)amino)-1H-pyrazolo[3,4-d]pyrimidin-3-yl)amino)nicotinamide] | – | – | > 7500
7 | Cc1ncc(C(=O)NCCN2CCCC2(C)C)cc1Nc1nn(C)c2nc(Nc3cnn(C)c3)ncc12 [Example 39, N-(2-(2,2-dimethylpyrrolidin-1-yl)ethyl)-6-methyl-5-((1-methyl-6-((1-methyl-1H-pyrazol-4-yl)amino)-1H-pyrazolo[3,4-d]pyrimidin-3-yl)amino)nicotinamide] | – | – | > 7500
8 | COC(=O)Cc1cccc(Nc2ncc3c(Nc4cc(C(=O)NCCN5CCCC5(C)C)cnc4C)nn(C)c3n2)c1 [Example 43] | 24 | – | –
9 | COC(=O)C(C)(C)c1cccc(Nc2ncc3c(Nc4cc(C(=O)NCCN5CCCC5(C)C)cnc4C)nn(C)c3n2)c1 [Example 46] | 18.5 | – | –
10 | Cc1ncc(NC(=O)CN2CCC[C@@H]2C)cc1Nc1nn(C)c2nc(Nc3cnn(C)c3)ncc12 [Example 71, (S)—N-(6-methyl-5-((1-methyl-6-((1-methyl-1H-pyrazol-4-yl)amino)-1H-pyrazolo[3,4-d]pyrimidin-3-yl)amino)pyridin-3-yl)-2-(2-methylpyrrolidin-1-yl)acetamide] | 1.7 | – | –
11 | Cc1ncc(NC(=O)CN2CCC(F)(F)CC2)cc1Nc1nn(C)c2nc(Nc3cnn(C)c3)ncc12 [Example 72, 2-(4,4-difluoropiperidin-1-yl)-N-(6-methyl-5-((1-methyl-6-((1-methyl-1H-pyrazol-4-yl)amino)-1H-pyrazolo[3,4-d]pyrimidin-3-yl)amino)pyridin-3-yl)acetamide] | 3.5 | – | –
12 | Cc1ncc(NC(=O)CN2CCC3(CC3)C2)cc1Nc1nn(C)c2nc(Nc3cnn(C)c3)ncc12 [Example 74, N-(6-methyl-5-((1-methyl-6-((1-methyl-1H-pyrazol-4-yl)amino)-1H-pyrazolo[3,4-d]pyrimidin-3-yl)amino)pyridin-3-yl)-2-(5-azaspiro[2.4]heptan-5-yl)acetamide] | 1.7 | – | –
13 | Cc1ncc(NC(=O)CN2CCC(F)(F)C2)cc1Nc1nn(C)c2nc(Nc3cnn(C)c3)ncc12 [Example 75, 2-(3,3-difluoropyrrolidin-1-yl)-N-(6-methyl-5-((1-methyl-6-((1-methyl-1H-pyrazol-4-yl)amino)-1H-pyrazolo[3,4-d]pyrimidin-3-yl)amino)pyridin-3-yl)acetamide] | 4.9 | – | –
14 | Cc1ncc(NC(=O)CN2CC(F)(F)C2)cc1Nc1nn(C)c2nc(Nc3cnn(C)c3)ncc12 [Example 76, 2-(3,3-difluoroazetidin-1-yl)-N-(6-methyl-5-((1-methyl-6-((1-methyl-1H-pyrazol-4-yl)amino)-1H-pyrazolo[3,4-d]pyrimidin-3-yl)amino)pyridin-3-yl)acetamide] | 13.1 | – | –
15 | Cc1ncc(NC(=O)CN2C[C@@H](C)O[C@@H](C)C2)cc1Nc1nn(C)c2nc(Nc3cnn(C)c3)ncc12 [Example 78, 2-(cis-2,6-dimethylmorpholino)-N-(6-methyl-5-((1-methyl-6-((1-methyl-1H-pyrazol-4-yl)amino)-1H-pyrazolo[3,4-d]pyrimidin-3-yl)amino)pyridin-3-yl)acetamide] | 8.3 | – | –
16 | Cc1ncc(NC(=O)CN(CCO)C2CCCC2)cc1Nc1nn(C)c2nc(Nc3cnn(C)c3)ncc12 [Example 79, 2-(cyclopentyl(2-hydroxyethyl)amino)-N-(6-methyl-5-((1-methyl-6-((1-methyl-1H-pyrazol-4-yl)amino)-1H-pyrazolo[3,4-d]pyrimidin-3-yl)amino)pyridin-3-yl)acetamide] | 23.5 | – | –
17 | Cc1ncc(NC(=O)CN(CCCO)C2CCCC2)cc1Nc1nn(C)c2nc(Nc3cnn(C)c3)ncc12 [Example 80, 2-(cyclopentyl(3-hydroxypropyl)amino)-N-(6-methyl-5-((1-methyl-6-((1-methyl-1H-pyrazol-4-yl)amino)-1H-pyrazolo[3,4-d]pyrimidin-3-yl)amino)pyridin-3-yl)acetamide] | 16.6 | – | –
18 | COCCn1cc(Nc2ncc3c(Nc4cc(NC(=O)CN5CCC56CCC6)cnc4C)nn(C)c3n2)cn1 [Example 123, N-(5-((6-((1-(2-methoxyethyl)-1H-pyrazol-4-yl)amino)-1-methyl-1H-pyrazolo[3,4-d]pyrimidin-3-yl)amino)-6-methylpyridin-3-yl)-2-(1-azaspiro[3.3]heptan-1-yl)acetamide] | 4.7 | – | –
